Measurements taken from ChEMBL document CHEMBL5678818, “Discovery of potent SOS1 inhibitors that block RAS activation via disruption of the RAS-SOS1 interaction” (Proc Natl Acad Sci U S A, 2019).

Tests used:
[1] = biological target: Cyclin-dependent kinase 17 (Homo sapiens) (UniProt Q00537); experiment: Inhibition of PCTK2 (unknown origin) assessed as residual activity at 1000 nM by KINOMEscan analysis relative to control
[2] = biological target: Serine/threonine-protein kinase B-raf (Homo sapiens) (UniProt P15056); experiment: Inhibition of BRAF (unknown origin) assessed as residual activity at 1000 nM by KINOMEscan analysis relative to control
Sequence of Serine/threonine-protein kinase B-raf (Homo sapiens) (P15056 whole entry): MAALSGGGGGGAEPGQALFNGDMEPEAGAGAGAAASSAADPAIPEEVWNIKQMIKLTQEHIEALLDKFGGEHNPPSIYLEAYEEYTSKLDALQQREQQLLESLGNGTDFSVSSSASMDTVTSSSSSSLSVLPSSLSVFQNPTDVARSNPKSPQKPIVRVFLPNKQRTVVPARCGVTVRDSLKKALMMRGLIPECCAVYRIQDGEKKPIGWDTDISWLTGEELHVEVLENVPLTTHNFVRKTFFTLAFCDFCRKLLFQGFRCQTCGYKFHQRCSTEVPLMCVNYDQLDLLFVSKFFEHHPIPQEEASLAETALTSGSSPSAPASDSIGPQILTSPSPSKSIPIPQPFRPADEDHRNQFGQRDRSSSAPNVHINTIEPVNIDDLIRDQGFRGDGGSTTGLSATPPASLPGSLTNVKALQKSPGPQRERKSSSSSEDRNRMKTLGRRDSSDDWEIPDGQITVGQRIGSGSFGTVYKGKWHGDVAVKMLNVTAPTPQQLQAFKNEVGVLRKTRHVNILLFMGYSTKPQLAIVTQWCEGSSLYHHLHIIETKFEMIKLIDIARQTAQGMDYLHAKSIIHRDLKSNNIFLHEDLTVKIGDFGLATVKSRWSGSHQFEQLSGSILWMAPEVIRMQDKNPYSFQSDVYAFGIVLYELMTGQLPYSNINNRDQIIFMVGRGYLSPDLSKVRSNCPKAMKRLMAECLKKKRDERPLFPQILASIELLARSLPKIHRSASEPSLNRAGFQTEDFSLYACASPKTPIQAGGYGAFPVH

[3] = test system: ALK tyrosine kinase receptor (Homo sapiens), Q9UM73 [C1156Y]; experiment: Inhibition of ALK C1156Y mutant (unknown origin) assessed as residual activity at 1000 nM by KINOMEscan analysis relative to control
[4] = test system: eIF-2-alpha kinase GCN2 (Homo sapiens), Q9P2K8 [S808G]; experiment: Inhibition of GCN2 S808G mutant […] domain (unknown origin) assessed as residual activity at 1000 nM by KINOMEscan analysis relative to control
Sequence of eIF-2-alpha kinase GCN2 (Homo sapiens), Q9P2K8 [S808G] (Q9P2K8 whole entry S808G): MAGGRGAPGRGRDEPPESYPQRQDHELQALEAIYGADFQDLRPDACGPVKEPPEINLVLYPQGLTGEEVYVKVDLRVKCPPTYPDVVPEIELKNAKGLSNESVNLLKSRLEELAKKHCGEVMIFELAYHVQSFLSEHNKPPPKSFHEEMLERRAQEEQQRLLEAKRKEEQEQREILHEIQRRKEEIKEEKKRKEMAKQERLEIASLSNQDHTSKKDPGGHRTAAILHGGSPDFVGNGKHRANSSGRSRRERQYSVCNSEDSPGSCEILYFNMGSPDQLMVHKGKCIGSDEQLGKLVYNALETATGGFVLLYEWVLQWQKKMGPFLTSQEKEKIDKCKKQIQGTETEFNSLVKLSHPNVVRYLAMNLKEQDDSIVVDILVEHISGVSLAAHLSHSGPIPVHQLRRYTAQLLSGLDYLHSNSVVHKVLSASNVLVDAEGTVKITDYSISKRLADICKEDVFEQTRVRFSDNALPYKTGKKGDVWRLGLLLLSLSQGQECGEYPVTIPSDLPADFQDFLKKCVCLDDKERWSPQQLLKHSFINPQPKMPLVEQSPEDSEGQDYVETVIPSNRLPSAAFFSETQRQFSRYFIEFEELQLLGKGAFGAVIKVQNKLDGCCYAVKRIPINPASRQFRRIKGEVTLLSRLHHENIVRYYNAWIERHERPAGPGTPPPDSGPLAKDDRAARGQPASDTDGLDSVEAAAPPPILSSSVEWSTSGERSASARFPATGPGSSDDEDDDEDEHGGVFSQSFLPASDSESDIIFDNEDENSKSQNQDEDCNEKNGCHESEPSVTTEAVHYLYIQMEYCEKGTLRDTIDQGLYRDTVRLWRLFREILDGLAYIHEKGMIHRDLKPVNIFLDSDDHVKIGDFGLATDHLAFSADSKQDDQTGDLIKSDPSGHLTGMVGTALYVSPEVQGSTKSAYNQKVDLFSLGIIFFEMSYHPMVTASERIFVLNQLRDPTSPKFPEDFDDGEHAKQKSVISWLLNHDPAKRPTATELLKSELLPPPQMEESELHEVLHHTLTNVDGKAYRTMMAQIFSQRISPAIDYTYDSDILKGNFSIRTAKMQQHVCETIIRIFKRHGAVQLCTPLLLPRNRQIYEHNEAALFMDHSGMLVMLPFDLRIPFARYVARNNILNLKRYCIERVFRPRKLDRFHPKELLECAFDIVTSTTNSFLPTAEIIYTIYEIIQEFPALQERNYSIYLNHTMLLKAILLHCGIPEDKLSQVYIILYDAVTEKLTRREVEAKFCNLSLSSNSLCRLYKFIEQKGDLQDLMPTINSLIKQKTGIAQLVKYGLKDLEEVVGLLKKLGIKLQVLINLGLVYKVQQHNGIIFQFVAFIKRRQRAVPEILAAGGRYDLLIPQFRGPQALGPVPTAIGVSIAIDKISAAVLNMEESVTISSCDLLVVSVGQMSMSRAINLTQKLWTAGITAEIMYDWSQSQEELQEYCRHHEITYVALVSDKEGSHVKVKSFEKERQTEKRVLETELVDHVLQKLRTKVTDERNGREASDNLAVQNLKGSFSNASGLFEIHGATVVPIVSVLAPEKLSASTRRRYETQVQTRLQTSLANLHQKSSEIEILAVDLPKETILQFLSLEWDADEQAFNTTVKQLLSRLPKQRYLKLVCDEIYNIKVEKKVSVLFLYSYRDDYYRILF

[5] = biological target: Tyrosine-protein kinase Lck (Homo sapiens) (UniProt P06239); experiment: Inhibition of LCK (unknown origin) assessed as residual activity at 1000 nM by KINOMEscan analysis relative to control
[6] = biological target: Receptor-interacting serine/threonine-protein kinase 2 (Homo sapiens) (UniProt O43353); experiment: Inhibition of RIPK2 (unknown origin) assessed as residual activity at 1000 nM by KINOMEscan analysis relative to control
Sequence of Receptor-interacting serine/threonine-protein kinase 2 (Homo sapiens) (O43353 whole entry): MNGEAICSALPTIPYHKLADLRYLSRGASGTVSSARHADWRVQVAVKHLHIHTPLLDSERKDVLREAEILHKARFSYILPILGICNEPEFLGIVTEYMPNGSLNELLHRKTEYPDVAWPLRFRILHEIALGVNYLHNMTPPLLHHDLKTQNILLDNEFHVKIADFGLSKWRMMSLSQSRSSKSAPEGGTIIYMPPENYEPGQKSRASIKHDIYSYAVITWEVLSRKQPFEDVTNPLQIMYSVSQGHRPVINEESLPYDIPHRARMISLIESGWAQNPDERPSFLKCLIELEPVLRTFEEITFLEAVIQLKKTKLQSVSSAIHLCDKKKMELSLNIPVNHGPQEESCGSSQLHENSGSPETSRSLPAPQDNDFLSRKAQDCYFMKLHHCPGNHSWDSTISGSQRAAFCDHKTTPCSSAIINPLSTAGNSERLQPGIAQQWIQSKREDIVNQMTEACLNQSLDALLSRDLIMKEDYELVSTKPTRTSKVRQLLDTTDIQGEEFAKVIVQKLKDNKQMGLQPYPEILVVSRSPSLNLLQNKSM

[7] = biological target: Dual specificity tyrosine-phosphorylation-regulated kinase 1B (Homo sapiens) (UniProt Q9Y463); experiment: Inhibition of DYRK1B (unknown origin) assessed as residual activity at 1000 nM by KINOMEscan analysis relative to control
Sequence of Dual specificity tyrosine-phosphorylation-regulated kinase 1B (Homo sapiens) (Q9Y463 whole entry, looked up): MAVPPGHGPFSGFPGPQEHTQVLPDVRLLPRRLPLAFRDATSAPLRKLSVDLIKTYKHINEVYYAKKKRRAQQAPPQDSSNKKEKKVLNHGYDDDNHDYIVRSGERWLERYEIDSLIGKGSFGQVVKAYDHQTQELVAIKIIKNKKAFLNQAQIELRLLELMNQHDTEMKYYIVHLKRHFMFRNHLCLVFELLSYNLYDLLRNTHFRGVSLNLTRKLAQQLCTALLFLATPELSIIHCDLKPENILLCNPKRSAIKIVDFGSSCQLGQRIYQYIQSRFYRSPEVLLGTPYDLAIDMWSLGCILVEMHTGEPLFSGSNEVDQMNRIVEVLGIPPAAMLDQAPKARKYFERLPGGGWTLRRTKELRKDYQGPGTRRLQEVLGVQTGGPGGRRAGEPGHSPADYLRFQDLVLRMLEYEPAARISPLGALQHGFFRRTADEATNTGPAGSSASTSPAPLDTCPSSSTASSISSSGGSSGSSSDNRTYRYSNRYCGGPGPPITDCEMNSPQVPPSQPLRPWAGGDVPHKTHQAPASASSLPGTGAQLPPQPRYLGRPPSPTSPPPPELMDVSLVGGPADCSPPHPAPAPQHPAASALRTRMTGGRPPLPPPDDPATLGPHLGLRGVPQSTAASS

[8] = biological target: Activin receptor type-1 (Homo sapiens) (UniProt Q04771); experiment: Inhibition of ACVR1 (unknown origin) assessed as residual activity at 1000 nM by KINOMEscan analysis relative to control
[9] = biological target: Serine/threonine-protein kinase Nek6 (Homo sapiens) (UniProt Q9HC98); experiment: Inhibition of NEK6 (unknown origin) assessed as residual activity at 1000 nM by KINOMEscan analysis relative to control
Sequence of Serine/threonine-protein kinase Nek6 (Homo sapiens) (Q9HC98 whole entry): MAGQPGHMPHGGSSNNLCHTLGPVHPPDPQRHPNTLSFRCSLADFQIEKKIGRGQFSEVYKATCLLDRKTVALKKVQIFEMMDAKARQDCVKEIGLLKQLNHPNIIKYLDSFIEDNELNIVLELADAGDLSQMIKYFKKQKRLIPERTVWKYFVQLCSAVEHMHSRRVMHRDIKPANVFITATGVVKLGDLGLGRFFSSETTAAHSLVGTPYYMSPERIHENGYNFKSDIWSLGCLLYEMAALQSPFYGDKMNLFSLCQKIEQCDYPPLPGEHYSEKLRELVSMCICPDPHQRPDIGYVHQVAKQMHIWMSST

[10] = biological target: SRSF protein kinase 3 (Homo sapiens) (UniProt Q9UPE1); experiment: Inhibition of SRPK3 (unknown origin) assessed as residual activity at 1000 nM by KINOMEscan analysis relative to control
Sequence of SRSF protein kinase 3 (Homo sapiens) (Q9UPE1 whole entry, looked up): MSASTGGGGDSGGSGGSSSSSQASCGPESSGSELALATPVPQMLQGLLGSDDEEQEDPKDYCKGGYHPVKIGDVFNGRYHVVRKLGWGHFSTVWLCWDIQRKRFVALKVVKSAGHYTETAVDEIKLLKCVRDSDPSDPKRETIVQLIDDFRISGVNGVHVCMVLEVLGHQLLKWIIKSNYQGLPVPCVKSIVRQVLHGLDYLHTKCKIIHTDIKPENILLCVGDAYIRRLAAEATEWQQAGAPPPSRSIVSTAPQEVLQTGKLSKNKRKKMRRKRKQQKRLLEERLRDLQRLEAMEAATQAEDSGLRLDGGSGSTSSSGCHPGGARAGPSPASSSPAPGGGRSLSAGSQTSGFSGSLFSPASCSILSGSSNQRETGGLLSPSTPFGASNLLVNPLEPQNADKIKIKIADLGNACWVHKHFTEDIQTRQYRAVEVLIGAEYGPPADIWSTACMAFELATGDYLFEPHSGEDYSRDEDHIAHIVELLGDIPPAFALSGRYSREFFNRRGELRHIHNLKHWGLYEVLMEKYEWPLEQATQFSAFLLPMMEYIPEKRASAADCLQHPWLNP

[11] = biological target: BMP-2-inducible protein kinase (Homo sapiens) (UniProt Q9NSY1); experiment: Inhibition of BIKE (unknown origin) assessed as residual activity at 1000 nM by KINOMEscan analysis relative to control
[12] = biological target: Casein kinase II subunit alpha' (Homo sapiens) (UniProt P19784); experiment: Inhibition of CSNK2A2 (unknown origin) assessed as residual activity at 1000 nM by KINOMEscan analysis relative to control
[13] = biological target: T1, Phosphatidylinositol 5-phosphate 4-kinase type-2 beta (Homo sapiens) (UniProt P78356); experiment: Inhibition of PIP5K2B (unknown origin) assessed as residual activity at 1000 nM by KINOMEscan analysis relative to control
T1 sequence (whole entry): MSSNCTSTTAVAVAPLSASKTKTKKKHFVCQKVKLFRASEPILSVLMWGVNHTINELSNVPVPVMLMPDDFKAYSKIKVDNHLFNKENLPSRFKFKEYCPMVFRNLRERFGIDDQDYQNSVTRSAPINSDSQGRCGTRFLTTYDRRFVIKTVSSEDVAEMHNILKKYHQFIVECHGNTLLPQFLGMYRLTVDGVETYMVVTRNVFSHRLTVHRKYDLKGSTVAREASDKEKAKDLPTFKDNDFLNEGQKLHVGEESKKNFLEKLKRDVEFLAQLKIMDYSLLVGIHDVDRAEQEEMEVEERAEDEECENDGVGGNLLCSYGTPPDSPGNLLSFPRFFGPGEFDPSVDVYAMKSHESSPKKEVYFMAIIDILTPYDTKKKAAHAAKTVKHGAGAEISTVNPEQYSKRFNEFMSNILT

[14] = biological target: T2, Son of sevenless homolog 1 (Homo sapiens) (UniProt Q07889); experiment: Binding affinity to N-terminal His10-tagged wild-type recombinant human SOS1 catalytic domain (564 to 1049 residues) expressed in Escherichia coli assessed as change in entropy by ITC analysis
T2 sequence (whole entry): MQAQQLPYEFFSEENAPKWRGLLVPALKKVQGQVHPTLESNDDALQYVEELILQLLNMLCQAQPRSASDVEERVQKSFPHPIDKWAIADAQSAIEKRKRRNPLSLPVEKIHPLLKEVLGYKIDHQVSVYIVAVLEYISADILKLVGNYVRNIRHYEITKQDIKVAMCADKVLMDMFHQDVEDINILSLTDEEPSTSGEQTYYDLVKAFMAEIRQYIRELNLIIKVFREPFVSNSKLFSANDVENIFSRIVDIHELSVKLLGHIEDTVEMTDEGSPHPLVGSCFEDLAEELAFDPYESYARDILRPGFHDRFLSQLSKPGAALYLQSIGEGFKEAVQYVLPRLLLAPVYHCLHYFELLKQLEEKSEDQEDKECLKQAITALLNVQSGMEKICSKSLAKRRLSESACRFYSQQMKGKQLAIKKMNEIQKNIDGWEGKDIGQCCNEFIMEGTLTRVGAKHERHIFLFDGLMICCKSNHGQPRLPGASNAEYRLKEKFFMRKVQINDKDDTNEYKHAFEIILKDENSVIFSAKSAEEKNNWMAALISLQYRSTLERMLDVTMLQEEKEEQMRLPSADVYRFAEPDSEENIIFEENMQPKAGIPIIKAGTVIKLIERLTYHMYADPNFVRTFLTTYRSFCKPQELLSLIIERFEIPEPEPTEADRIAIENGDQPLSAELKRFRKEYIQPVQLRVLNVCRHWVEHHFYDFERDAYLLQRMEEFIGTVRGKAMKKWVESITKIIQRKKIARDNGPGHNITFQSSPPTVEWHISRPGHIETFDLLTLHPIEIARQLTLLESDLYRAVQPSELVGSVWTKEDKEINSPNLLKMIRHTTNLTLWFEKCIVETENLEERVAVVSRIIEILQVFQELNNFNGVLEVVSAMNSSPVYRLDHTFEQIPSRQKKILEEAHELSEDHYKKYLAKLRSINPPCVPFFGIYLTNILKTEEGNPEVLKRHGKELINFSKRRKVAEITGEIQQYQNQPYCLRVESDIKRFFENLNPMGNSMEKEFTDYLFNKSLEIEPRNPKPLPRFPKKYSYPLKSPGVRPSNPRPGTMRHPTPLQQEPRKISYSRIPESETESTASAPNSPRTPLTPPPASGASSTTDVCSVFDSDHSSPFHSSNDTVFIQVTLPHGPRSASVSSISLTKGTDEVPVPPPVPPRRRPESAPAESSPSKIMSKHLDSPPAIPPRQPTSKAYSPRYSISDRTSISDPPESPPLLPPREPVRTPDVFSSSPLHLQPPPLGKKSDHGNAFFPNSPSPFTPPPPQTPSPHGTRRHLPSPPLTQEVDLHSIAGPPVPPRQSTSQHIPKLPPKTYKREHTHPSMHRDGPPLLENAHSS

Sequence of Cyclin-dependent kinase 17 (Homo sapiens) (Q00537 whole entry, looked up): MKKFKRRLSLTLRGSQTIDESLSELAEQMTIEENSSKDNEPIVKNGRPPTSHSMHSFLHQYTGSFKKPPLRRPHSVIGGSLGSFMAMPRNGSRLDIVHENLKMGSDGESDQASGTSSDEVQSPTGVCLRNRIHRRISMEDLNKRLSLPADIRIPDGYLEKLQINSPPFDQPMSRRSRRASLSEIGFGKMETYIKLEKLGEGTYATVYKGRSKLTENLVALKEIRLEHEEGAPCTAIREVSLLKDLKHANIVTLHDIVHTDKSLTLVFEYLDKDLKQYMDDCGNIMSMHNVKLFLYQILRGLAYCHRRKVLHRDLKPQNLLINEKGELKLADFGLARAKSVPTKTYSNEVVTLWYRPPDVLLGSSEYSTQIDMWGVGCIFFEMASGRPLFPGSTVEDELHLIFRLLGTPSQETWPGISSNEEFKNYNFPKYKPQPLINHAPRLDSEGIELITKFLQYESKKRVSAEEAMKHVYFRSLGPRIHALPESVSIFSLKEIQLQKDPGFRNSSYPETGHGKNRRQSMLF

Structure (SMILES)	Activity [1] [%]	Activity [2] [%]	Activity [3] [%]	Activity [4] [%]	Activity [5] [%]	Activity [6] [%]	Activity [7] [%]	Activity [8] [%]	Activity [9] [%]	Activity [10] [%]	Activity [11] [%]	Activity [12] [%]	Activity [13] [%]	-TdeltaS [14] [kJ/mol]
COc1cc2nc(C)nc(N[C@H](C)c3cccc(-c4cn[nH]c4)c3)c2cc1OC	83	75	80	100	56	73	100	100	93	93	71	100	89	
CNCc1ccccc1-c1csc([C@@H](C)Nc2nc(C)nc3cc(OC)c(OC)cc23)c1 [BAY-293]														23
COc1cc2ncnc(N[C@H](C)c3cccc4ccccc34)c2cc1OC	100	91	86	100	70	99	50	100	97	100	100	90	100	23
